Laboratory results taken from PubChem BioAssay (NCI).
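Interpolation was linear, between the two tested concentrations surrounding the appropriate level; five concentrations were tested over 48 hours in 96-well plates. GI50: concentration for 50% inhibition of growth. Definition used: TGI = concentration required for complete inhibition of growth.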 Active and inactive are the calls of the source. No stated cut-off is given here; in the data, active means GI50 below about 0.43 µM; inactive means the rest.

Tests used:
Assay in all cases: NCI-60 cell line screen, 48 h
MOLT-4 leukemia = system: MOLT-4 leukemia
RPMI-8226 leukemia = system: RPMI-8226 leukemia
SR leukemia = system: SR leukemia
786-0 renal = system: 786-0 renal
SK-OV-3 ovarian = system: SK-OV-3 ovarian
CAKI-1 renal = system: CAKI-1 renal
SNB-19 CNS = system: SNB-19 CNS
OVCAR-5 ovarian = system: OVCAR-5 ovarian
NCI/ADR-RES ovarian = system: NCI/ADR-RES ovarian
HT29 colon = system: HT29 colon
SK-MEL-28 melanoma = system: SK-MEL-28 melanoma
IGROV1 ovarian = system: IGROV1 ovarian
HOP-62 NSCLC = system: HOP-62 NSCLC
HL-60(TB) leukemia = system: HL-60(TB) leukemia
HCC-2998 colon = system: HCC-2998 colon
UO-31 renal = system: UO-31 renal
HCT-116 colon = system: HCT-116 colon
COLO 205 colon = system: COLO 205 colon
NCI-H226 lung = system: NCI-H226 lung
T-47D breast = system: T-47D breast
SF-539 CNS = system: SF-539 CNS
NCI-H23 lung = system: NCI-H23 lung
SK-MEL-5 melanoma = system: SK-MEL-5 melanoma
ACHN renal = system: ACHN renal
UACC-62 melanoma = system: UACC-62 melanoma
KM12 colon = system: KM12 colon
SF-295 CNS = system: SF-295 CNS
MALME-3M melanoma = system: MALME-3M melanoma
LOX IMVI melanoma = system: LOX IMVI melanoma
TK-10 renal = system: TK-10 renal
SW-620 colon = system: SW-620 colon
MDA-MB-435 = system: MDA-MB-435
NCI-H460 lung = system: NCI-H460 lung
U251 CNS = system: U251 CNS
DU-145 prostate = system: DU-145 prostate
MDA-MB-231 breast = system: MDA-MB-231 breast
M14 melanoma = system: M14 melanoma
SN12C renal = system: SN12C renal
OVCAR-4 ovarian = system: OVCAR-4 ovarian
HCT-15 colon = system: HCT-15 colon
NCI-H522 lung = system: NCI-H522 lung
OVCAR-3 ovarian = system: OVCAR-3 ovarian
MCF7 breast = system: MCF7 breast
SF-268 CNS = system: SF-268 CNS
A498 renal = system: A498 renal
HOP-92 NSCLC = system: HOP-92 NSCLC
PC-3 prostate = system: PC-3 prostate
A549 NSCLC = system: A549 NSCLC
EKVX NSCLC = system: EKVX NSCLC
K-562 leukemia = system: K-562 leukemia
SNB-75 CNS = system: SNB-75 CNS
CCRF-CEM leukemia = system: CCRF-CEM leukemia
HS 578T breast = system: HS 578T breast

O=c1[nH]c(C2CCCCC2)nc2c(Cl)cccc12 was tested, and the outcome (MOLT-4 leukemia) was “inactive”, the outcome (RPMI-8226 leukemia) was “inactive” and the outcome (SR leukemia) was “inactive”.

Work on NC(N)=N/N=C/c1c(-c2cc([N+](=O)[O-])c(Cl)cc2Cl)nc2sccn12 yielded a TGI (786-0 renal) of 3.11 µM, a TGI (SK-OV-3 ovarian) of 3.39 µM and a TGI (CAKI-1 renal) of 33.7 µM. It also gave a GI50 (SNB-19 CNS) of 0.274 µM, a TGI (SNB-19 CNS) of 56.3 µM and a TGI (OVCAR-5 ovarian) of 3.39 µM. It also gave a TGI (NCI/ADR-RES ovarian) greater than 100 µM, a GI50 (HT29 colon) of 1.79 µM and a TGI (HT29 colon) of 3.18 µM. For the same molecule, the TGI (SK-MEL-28 melanoma) was 2.67 µM, the GI50 (IGROV1 ovarian) was 0.712 µM and the TGI (IGROV1 ovarian) was 2.03 µM. For the same molecule, the TGI (HOP-62 NSCLC) was 3.44 µM, the TGI (HL-60(TB) leukemia) was 4.31 µM and the GI50 (HCC-2998 colon) was 1.36 µM. For the same molecule, the TGI (HCC-2998 colon) was 2.76 µM, the TGI (UO-31 renal) was 2.6 µM and the GI50 (HCT-116 colon) was 0.272 µM. The TGI (HCT-116 colon) was 1.02 µM, the GI50 (COLO 205 colon) was 1.38 µM and the TGI (COLO 205 colon) was 2.84 µM.

With COc1cc(-n2cc(-c3ccc(Cl)cc3)nc2SCc2cccc(C#N)c2)cc(OC)c1OC the GI50 (786-0 renal) was 25.1 µM, the TGI (786-0 renal) was 92.5 µM and the GI50 (NCI-H226 lung) was 41.3 µM. The TGI (NCI-H226 lung) was greater than 100 µM, the GI50 (SK-OV-3 ovarian) was 71.5 µM and the TGI (SK-OV-3 ovarian) was greater than 100 µM. It also gave a GI50 (MOLT-4 leukemia) of 37.5 µM, a TGI (MOLT-4 leukemia) greater than 100 µM and a GI50 (T-47D breast) of 21.4 µM. For the same molecule, the TGI (T-47D breast) was greater than 100 µM, the GI50 (SF-539 CNS) was 15.5 µM and the TGI (SF-539 CNS) was 48.1 µM. For the same molecule, the GI50 (NCI-H23 lung) was 37.5 µM, the TGI (NCI-H23 lung) was greater than 100 µM and the GI50 (SK-MEL-5 melanoma) was 34.8 µM. For the same molecule, the TGI (SK-MEL-5 melanoma) was greater than 100 µM, the GI50 (ACHN renal) was 37.6 µM and the TGI (ACHN renal) was greater than 100 µM. The GI50 (UACC-62 melanoma) was 21.9 µM, the TGI (UACC-62 melanoma) was greater than 100 µM and the GI50 (KM12 colon) was greater than 100 µM. The TGI (KM12 colon) was greater than 100 µM, the GI50 (CAKI-1 renal) was 38.5 µM and the TGI (CAKI-1 renal) was greater than 100 µM. For the same molecule, the GI50 (SNB-19 CNS) was 48 µM, the TGI (SNB-19 CNS) was greater than 100 µM and the GI50 (SF-295 CNS) was 48.1 µM. For the same molecule, the TGI (SF-295 CNS) was greater than 100 µM, the GI50 (MALME-3M melanoma) was 18.9 µM and the TGI (MALME-3M melanoma) was 60.2 µM. It also gave a GI50 (LOX IMVI melanoma) greater than 100 µM, a TGI (LOX IMVI melanoma) greater than 100 µM and a GI50 (TK-10 renal) of 30.5 µM. The TGI (TK-10 renal) was greater than 100 µM, the GI50 (SW-620 colon) was 91.5 µM and the TGI (SW-620 colon) was greater than 100 µM. For the same molecule, the GI50 (MDA-MB-435) was 82.9 µM, the TGI (MDA-MB-435) was greater than 100 µM and the GI50 (NCI-H460 lung) was 95.5 µM. For the same molecule, the TGI (NCI-H460 lung) was greater than 100 µM, the GI50 (U251 CNS) was 44.1 µM and the TGI (U251 CNS) was greater than 100 µM. It also gave a GI50 (OVCAR-5 ovarian) greater than 100 µM, a TGI (OVCAR-5 ovarian) greater than 100 µM and a GI50 (DU-145 prostate) of 48.1 µM. For the same molecule, the TGI (DU-145 prostate) was greater than 100 µM, the GI50 (NCI/ADR-RES ovarian) was 94.7 µM and the TGI (NCI/ADR-RES ovarian) was greater than 100 µM. For the same molecule, the GI50 (MDA-MB-231 breast) was 73.5 µM, the TGI (MDA-MB-231 breast) was greater than 100 µM and the GI50 (HT29 colon) was 54.1 µM. The TGI (HT29 colon) was greater than 100 µM, the GI50 (SK-MEL-28 melanoma) was 31.2 µM and the TGI (SK-MEL-28 melanoma) was greater than 100 µM. The GI50 (M14 melanoma) was greater than 100 µM, the TGI (M14 melanoma) was greater than 100 µM and the GI50 (SN12C renal) was 46 µM. The TGI (SN12C renal) was greater than 100 µM, the GI50 (OVCAR-4 ovarian) was 20.9 µM and the TGI (OVCAR-4 ovarian) was 74.7 µM. It also gave a GI50 (HCT-15 colon) greater than 100 µM, a TGI (HCT-15 colon) greater than 100 µM and a GI50 (NCI-H522 lung) of 47 µM. The TGI (NCI-H522 lung) was greater than 100 µM, the GI50 (IGROV1 ovarian) was 54.9 µM and the TGI (IGROV1 ovarian) was greater than 100 µM. The GI50 (HOP-62 NSCLC) was 39.2 µM, the TGI (HOP-62 NSCLC) was greater than 100 µM and the GI50 (OVCAR-3 ovarian) was 50.3 µM. It also gave a TGI (OVCAR-3 ovarian) greater than 100 µM, a GI50 (MCF7 breast) of 51.3 µM and a TGI (MCF7 breast) greater than 100 µM. The GI50 (SF-268 CNS) was 39.4 µM, the TGI (SF-268 CNS) was greater than 100 µM and the GI50 (HL-60(TB) leukemia) was greater than 100 µM. It also gave a TGI (HL-60(TB) leukemia) greater than 100 µM, a GI50 (A498 renal) of 33.3 µM and a TGI (A498 renal) greater than 100 µM. The GI50 (HCC-2998 colon) was greater than 100 µM, the TGI (HCC-2998 colon) was greater than 100 µM and the GI50 (HOP-92 NSCLC) was 18.8 µM. The TGI (HOP-92 NSCLC) was 86.5 µM, the GI50 (PC-3 prostate) was 30.4 µM and the TGI (PC-3 prostate) was greater than 100 µM. The GI50 (RPMI-8226 leukemia) was greater than 100 µM, the TGI (RPMI-8226 leukemia) was greater than 100 µM and the GI50 (UO-31 renal) was 60.4 µM. The TGI (UO-31 renal) was greater than 100 µM, the GI50 (A549 NSCLC) was greater than 100 µM and the TGI (A549 NSCLC) was greater than 100 µM. It also gave a GI50 (EKVX NSCLC) of 18.2 µM, a TGI (EKVX NSCLC) of 56.9 µM and a GI50 (SR leukemia) greater than 100 µM. The TGI (SR leukemia) was greater than 100 µM, the GI50 (K-562 leukemia) was greater than 100 µM and the TGI (K-562 leukemia) was greater than 100 µM. For the same molecule, the GI50 (HCT-116 colon) was 37.3 µM, the TGI (HCT-116 colon) was greater than 100 µM and the GI50 (SNB-75 CNS) was 0.433 µM. It also gave a TGI (SNB-75 CNS) of 9.77 µM, a GI50 (CCRF-CEM leukemia) greater than 100 µM and a TGI (CCRF-CEM leukemia) greater than 100 µM. It also gave a GI50 (HS 578T breast) of 34.2 µM, a TGI (HS 578T breast) greater than 100 µM and a GI50 (COLO 205 colon) greater than 100 µM. The TGI (COLO 205 colon) was greater than 100 µM.
